“And” between values parts separate entries of the source, which are not always exact repeats. Equal values may be shown once. Read-outs that look alike come from different tables or passages of the source.
Tests used:
[1] = tested on: R. sphaeroides; experiment: Hydrogen production by R. sphaeroides under photosynthetic condition in the presence of alcohol (GC of gas phase); type: cell-based, Rhodobacter sphaeroides; conditions: for efficiency of hydrogen production: 10 Watts/m^2, 30° C., anaerobic
Method: For the hydrogen production, R. sphaeroides 2.4.1(ATCC BAA-808, Cohen-Bazire et al. 1956. J. Cell. Comp. Physiol. 49: 25-68) or R. sphaeroides KCTC 12085 were used. To grow the cells, basically Sistrom minimal medium [20 mM KH2PO4, 3.8 mM (NH4)2SO4, 34 mM succinate, 0.59 mM L-glutamate, 0.30 mM L-aspartate, 8.5 mM NaCl, 1.05 mM nitrilotriacetic acid, 1.2 mM MgCl26H2O, 0.23 mM CaCl27H2O, 25 µM FeSO47H2O, 0.16 M (NH4)6Mo7O244H2O, 4.7 M EDTA, 38 M ZnSO47H2O, 9.1 M MnSO4H2O, 1.6 M CuSO45H2O, 0.85 M Co(NO3)26H2O (II), 1.8 M H3BO3, 8.1 M Nicotinic acid, 1.5 M Thiamine HCl, 41 nM biotin (Sistrom, W. R, 1962. J. Gen. Microbiol. 28: 607-616)] were used with the following modifications. To optimize the activity of nitrogenase, Ammonium molybdate was replaced with the same amount of Sodium molybdate, or 7 mM of L-glutamate was used instead of ammonium sulfate, or succinate was replaced with 30 mM malate. To investigate the effect of ammonium, 2 mM Ammonium chloride was added.
R. sphaeroides was inoculated at the concentration of 10^8 CFU/ml in 10 ml of Sistrom minimal medium and incubated for 120 hrs. to test the hydrogen production at the following condition: 10 Watts/m^2, 30° C., anaerobic. To measure the hydrogen produced, the cells were incubated in a serum vial which was air tight. Before use the air in the vial was replaced with argon gas to remove oxygen. During the reaction, an aliquot of gas in the gas phase was sampled from the vial using the gas-tight syringe, which was further analyzed by a Gas Chromatography (GC, Shimadzu, Japan).
(§1) Each strain was inoculated to the medium as described above at 10^8 CFU/ml and incubated for 120 hours under the following condition: 10 Watts/m^2 of light, 30° C., and anaerobic condition and the amount of hydrogen produced was tested. The ethanol was added at 0.2 vol % and the cell growth, and hydrogen production and analysis were performed as described in Example 1.
To determine the optimal concentration and time of the alcohol added, the accumulated amount of hydrogen produced was measured in R. sphaeroides in the presence of varying amounts of ethanol from 0.01 vol % to 2 vol % (volume/volume %) by incubating them under the same condition as described in Example 1.
In addition to ethanol, other alcohols, that is, methanol (CH3OH), propanol (CH3CH2CH2OH), isopropanol [(CH3)2CHOH], butanol [CH3(CH2)2CH2OH], isoamyl alcohol, [(CH3)2CHCH2CH2OH] were tested. Under the same condition as used in Example 1, each alcohol was added to the cells at the concentration of 0.1%, 0.2%, 0.5%, or 1.0%.

[2] = tested on: Rhodobacter capsulatus SB1003; conditions: R. capsulatus; ethanol 0.2 vol %; modified Sistrom medium depleted with ammonium ion; 120 hours
Method: Rhodobacter capsulatus SB1003 and Rhodospirillum rubrum UR1 selected for the experiment due to their well characterization. For the growth of R. capsulatus, a modified Sistrom medium depleted with ammonium ion was used; and for the growth of R. rubrum, MG minimal medium was used as described in Lehman and Roberts. 1991. J. Bacteriol. 173: 5705-5711.
as §1

[3] = tested on: R. sphaeroides
Method: The wild type R. sphaeroides cells were grown under 10 Watts/m^2 of light as described in Example 1 and tested for the production of hydrogen.
The hydrogen produced was analyzed as described in Example 1.

[4] = tested on: nitrogenase
Method: The activity of nitrogenase was measured by the rate of ethylene (C2H4) produced using the acetylene (C2H2) as a substrate. The nitrogenase has an ability to produce hydrogen and ethylene by reducing proton (H+) and acetylene in addition to using N2 as substrate (Kern et al. 1992. Appl. Microbiol. Biotechnol. 37: 496-500). The activity of the nitrogenase was measured by incubating R. sphaeroides under the photosynthetic condition of 10 Watts/m^2 of light. 10 ml of the bacteria (10^8 CFU/ml) was placed in a serum vial (65 ml) and incubated under the light until the KU (Klett Unit) reached 150 to 200. To prevent the de novo protein synthesis during the incubation period, chloramphenicol was used at 50 μg/ml and the air in the vial was replaced with argon before use. Acetylene was injected into the vial to occupy 10% of the entire air phase using a gas-tight syringe. The cells were first incubated for 10 min without light and the reaction started under the 10 Watts/m^2 light. The amount of ethylene produced was measured by withdrawing an aliquot of the gas in the gas phase using a gas-tight syringe and by subject them to GC analysis.

[5] = concentration not stated (tested at 0.1%, 0.2%, 0.5%, or 1.0%)

Molecule: CO [Methanol, methanol]
- hydrogen production ([1]; alcohol at 0.1%, 0.2%, and 0.5%): increased
- cell growth ([1]; alcohol at 1.0%): inhibit the cell growth
- concentration with the highest effect on hydrogen production ([1]; tested at 0.1%, 0.2%, 0.5%, or 1.0%): 0.2%

Molecule: CCO [ethanol]
- fold increase (hydrogen produced in the presence of alcohol/in the absence of alcohol) [2]: 1.5 fold and 1.53 fold
- hydrogen gas producing ability remained in 2 mM ammonium ion compared to 0 mM ammonium ion ([3]; 0.2% ethanol, modified medium, FIG. 4): not less than 80%
- nitrogenase activity remained in the presence of ammonium ion ([3]; after the addition of ethanol): more than 80%
- growth of cells ([1]; 2% ethanol): inhibited the growth
- hydrogen produced ([1]; 2% ethanol): very much decreased
- fold increase (hydrogen produced in the presence of alcohol/in the absence of alcohol) ([1]; R. sphaeroides, ethanol 0.2 vol %, 120 hours): 2.21 fold
- growth of bacteria ([1]; ethanol 0.1 vol % and 0.5 vol %, Sistrom medium containing ammonium ion): not affected
- hydrogen production, times higher than the control ([1]; ethanol 0.1 vol % or 0.5 vol % vs control without ethanol): 10 times
- efficiency of hydrogen production ([1]; ethanol 0.1 vol %, Sistrom medium containing ammonium ion): 5.04 mole H2/mole succinate
- effect on hydrogen production by time of addition ([1]; ethanol 0.5 vol % added with inoculation (10 KU) or at 100 KU compared to addition at 300 KU, FIG. 5): higher increasing effect on the hydrogen production
- efficiency of hydrogen production ([1]; ethanol 0.5 vol %, Sistrom medium containing ammonium ion): 5.72 mole H2/mole succinate
- accumulated hydrogen production, wild type strain ([1]; ethanol 0.5 vol %, Sistrom medium containing ammonium ion, FIG. 3): increased hydrogen production
- hydrogen production ([1]; ethanol less than 0.05%): not shown to increase
- activity of nitrogenase, times higher than the control ([4]; 0.2 vol % ethanol vs control without ethanol): 4 times
- activity of nitrogenase ([4]; 0.2 vol % of EtOH, 10 Watts/m^2 light): 18.2 nmole KU^−1 h^−1

Molecule: CC(C)CCO [isoamyl alcohol]
- hydrogen production [1, 5]: decrease the hydrogen production

Molecule: CC(C)O [isopropanol]
- increase of hydrogen production [1, 5]: about 35%

Molecule: CCCO [propanol]
- concentration with the highest effect on hydrogen production [1]: 0.5%
- hydrogen production [1]: increased

Molecule: butanol
- concentration with the highest effect on hydrogen production [1]: 0.2%
- hydrogen production [1]: increased

From patent publication US20130089907A1, “HYDROGEN PRODUCTION METHOD USING ALCOHOL AND PHOTOSYNTHETIC BACTERIA” (priority 2010, published 2013)
